Data: the NIST ThermoML archive (doi:10.1021/je050085p)

How the values were obtained:
[1] = xn = mol fraction of the nth substance listed; conditions: 308.15 K, 101 kPa, Liquid
[2] = excess molar enthalpy (molar enthalpy of mixing); xn = mol fraction of the nth substance listed; conditions: 308.15 K, 101 kPa, Liquid, Flow calorimetry
[3] = refractive index (Na D-line) (dimensionless); xn = mol fraction of the nth substance listed; conditions: 308.15 K, 101 kPa, Liquid, Standard Abbe refractometry
[4] = refractive index (Na D-line) (dimensionless); conditions: 101.33 kPa, Liquid, Standard Abbe refractometry
[5] = 101.33 kPa, Liquid

OCCc1ccccc1 [2-phenylethanol] + COc1ccccc1
Conditions | excess molar enthalpy [kcal/mol] | mass density [kg/m3] | refractive index
[1], x2 = 0.0521 | – | 1007.44 | –
[1], x2 = 0.1223 | – | 1005.63 | –
[1], x2 = 0.2121 | – | 1003.26 | –
[1], x2 = 0.3153 | – | 1000.43 | –
[1], x2 = 0.4172 | – | 997.53 | –
[1], x2 = 0.5245 | – | 994.36 | –
[1], x2 = 0.617 | – | 991.55 | –
[1], x2 = 0.7479 | – | 987.5 | –
[1], x2 = 0.7673 | – | 986.9 | –
[1], x2 = 0.811 | – | 985.5 | –
[1], x2 = 0.9073 | – | 982.55 | –
[1], x2 = 0.9513 | – | 981.2 | –
[2], x2 = 0.0437 | 0.0227 | – | –
[2], x2 = 0.0838 | 0.0478 | – | –
[2], x2 = 0.1206 | 0.0728 | – | –
[2], x2 = 0.1546 | 0.0948 | – | –
[2], x2 = 0.2153 | 0.134 | – | –
[2], x2 = 0.2678 | 0.164 | – | –
[2], x2 = 0.3543 | 0.207 | – | –
[2], x2 = 0.4224 | 0.228 | – | –
[2], x2 = 0.5232 | 0.25 | – | –
[2], x2 = 0.6221 | 0.269 | – | –
[2], x2 = 0.687 | 0.273 | – | –
[2], x2 = 0.767 | 0.267 | – | –
[2], x2 = 0.8145 | 0.251 | – | –
[2], x2 = 0.8682 | 0.217 | – | –
[2], x2 = 0.9006 | 0.185 | – | –
[2], x2 = 0.9294 | 0.147 | – | –
[2], x2 = 0.9634 | 0.0864 | – | –
[3], x2 = 0.0521 | – | – | 1.526
[3], x2 = 0.1223 | – | – | 1.5248
[3], x2 = 0.2121 | – | – | 1.5233
[3], x2 = 0.3153 | – | – | 1.5217
[3], x2 = 0.4172 | – | – | 1.52
[3], x2 = 0.5245 | – | – | 1.5182
[3], x2 = 0.617 | – | – | 1.5165
[3], x2 = 0.7479 | – | – | 1.514
[3], x2 = 0.7673 | – | – | 1.5136
[3], x2 = 0.811 | – | – | 1.5127
[3], x2 = 0.9073 | – | – | 1.5106
[3], x2 = 0.9513 | – | – | 1.5096

OCCCc1ccccc1 [3-phenyl-1-propanol]
Conditions | mass density, [5] [kg/m3] | refractive index, [4]
298.15 K | – | 1.5259
308.15 K | 991.01 | 1.5214

OCCCc1ccccc1 [3-phenyl-1-propanol] + COc1ccccc1
Conditions | excess molar enthalpy [kcal/mol] | mass density [kg/m3] | refractive index
[1], x2 = 0.0579 | – | 990.46 | –
[1], x2 = 0.1201 | – | 989.91 | –
[1], x2 = 0.2636 | – | 988.55 | –
[1], x2 = 0.384 | – | 987.28 | –
[1], x2 = 0.4475 | – | 986.57 | –
[1], x2 = 0.5551 | – | 985.27 | –
[1], x2 = 0.6495 | – | 984.07 | –
[1], x2 = 0.7477 | – | 982.78 | –
[1], x2 = 0.8274 | – | 981.73 | –
[1], x2 = 0.8652 | – | 981.26 | –
[1], x2 = 0.913 | – | 980.67 | –
[1], x2 = 0.9588 | – | 980.14 | –
[2], x2 = 0.0493 | 0.0303 | – | –
[2], x2 = 0.094 | 0.059 | – | –
[2], x2 = 0.1347 | 0.0863 | – | –
[2], x2 = 0.1719 | 0.107 | – | –
[2], x2 = 0.2374 | 0.145 | – | –
[2], x2 = 0.2934 | 0.171 | – | –
[2], x2 = 0.3838 | 0.205 | – | –
[2], x2 = 0.4536 | 0.224 | – | –
[2], x2 = 0.5547 | 0.246 | – | –
[2], x2 = 0.6514 | 0.261 | – | –
[2], x2 = 0.7136 | 0.265 | – | –
[2], x2 = 0.7889 | 0.258 | – | –
[2], x2 = 0.8328 | 0.239 | – | –
[2], x2 = 0.877 | 0.207 | – | –
[2], x2 = 0.9088 | 0.175 | – | –
[2], x2 = 0.9373 | 0.133 | – | –
[2], x2 = 0.9676 | 0.0777 | – | –
[3], x2 = 0.0579 | – | – | 1.5208
[3], x2 = 0.1201 | – | – | 1.5201
[3], x2 = 0.2636 | – | – | 1.5186
[3], x2 = 0.384 | – | – | 1.5173
[3], x2 = 0.4475 | – | – | 1.5166
[3], x2 = 0.5551 | – | – | 1.5154
[3], x2 = 0.6495 | – | – | 1.5142
[3], x2 = 0.7477 | – | – | 1.5129
[3], x2 = 0.8274 | – | – | 1.5118
[3], x2 = 0.8652 | – | – | 1.5113
[3], x2 = 0.913 | – | – | 1.5108
[3], x2 = 0.9588 | – | – | 1.5101

OCc1ccccc1 [benzenemethanol]
Conditions | mass density, [5] [kg/m3] | refractive index, [4]
298.15 K | 1041.65 | 1.5377
308.15 K | 1033.64 | 1.535

CCOc1ccccc1 [ethoxybenzene]
Conditions | mass density, [5] [kg/m3] | refractive index, [4]
298.15 K | – | 1.5058
308.15 K | 950.86 | 1.5002

COc1ccccc1 [anisole]
Conditions | mass density, [5] [kg/m3] | refractive index, [4]
298.15 K | 989.3 | 1.5153
308.15 K | 979.71 | 1.5095

OCc1ccccc1 [benzenemethanol] + COc1ccccc1
Conditions | excess molar enthalpy [kcal/mol] | mass density [kg/m3] | refractive index
[1], x2 = 0.0519 | – | 1030.85 | –
[1], x2 = 0.0898 | – | 1028.81 | –
[1], x2 = 0.1854 | – | 1023.62 | –
[1], x2 = 0.2883 | – | 1018 | –
[1], x2 = 0.3766 | – | 1013.19 | –
[1], x2 = 0.4911 | – | 1006.94 | –
[1], x2 = 0.5916 | – | 1001.47 | –
[1], x2 = 0.6747 | – | 996.96 | –
[1], x2 = 0.7745 | – | 991.59 | –
[1], x2 = 0.9039 | – | 984.73 | –
[1], x2 = 0.9448 | – | 982.58 | –
[1], x2 = 0.9723 | – | 981.14 | –
[2], x2 = 0.038 | 0.022 | – | –
[2], x2 = 0.0732 | 0.0461 | – | –
[2], x2 = 0.1059 | 0.0655 | – | –
[2], x2 = 0.1364 | 0.0877 | – | –
[2], x2 = 0.1916 | 0.121 | – | –
[2], x2 = 0.2401 | 0.148 | – | –
[2], x2 = 0.3216 | 0.182 | – | –
[2], x2 = 0.3871 | 0.203 | – | –
[2], x2 = 0.4866 | 0.232 | – | –
[2], x2 = 0.5872 | 0.249 | – | –
[2], x2 = 0.6547 | 0.254 | – | –
[2], x2 = 0.7398 | 0.252 | – | –
[2], x2 = 0.7913 | 0.24 | – | –
[2], x2 = 0.8505 | 0.211 | – | –
[2], x2 = 0.8835 | 0.185 | – | –
[2], x2 = 0.9191 | 0.146 | – | –
[2], x2 = 0.9578 | 0.0877 | – | –
[3], x2 = 0.0519 | – | – | 1.5335
[3], x2 = 0.0898 | – | – | 1.5324
[3], x2 = 0.1854 | – | – | 1.5298
[3], x2 = 0.2883 | – | – | 1.527
[3], x2 = 0.3766 | – | – | 1.5247
[3], x2 = 0.4911 | – | – | 1.5218
[3], x2 = 0.5916 | – | – | 1.5193
[3], x2 = 0.6747 | – | – | 1.5173
[3], x2 = 0.7745 | – | – | 1.5149
[3], x2 = 0.9039 | – | – | 1.5118
[3], x2 = 0.9448 | – | – | 1.5108
[3], x2 = 0.9723 | – | – | 1.5102
